Source: patent US10994015B2, “EGFR proteolysis targeting chimeric molecules and associated methods of use” (Arvinas Operations, Inc., priority 2016, dated 2021)
pIC50: −log10 of the molar value.

Columns and labels:
EGFR L858R/T790M = EGFR L858R/T790M (Homo sapiens (Human), UniProt P00533, L858R/T790M); test: TR-FRET assay for ERBB kinases; format: biochemical; settings: geometric mean if measured more than once
Method in brief: (§1)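 Phosphotyrosine on fluorescein poly-GluTyr was detected by Tb-pY20 antibody after EDTA quench, reading emission at 520 and 490 nm. The kinase was exposed to compound for 10 min before an ATP-containing substrate mix (3 mM ATP as added) was introduced. Turnover lasted 10 min at room temperature.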

EGFR L858R/T790M/C797S = EGFR L858R/T790M/C797S (Homo sapiens (Human), UniProt P00533, C797S/L858R/T790M); test: TR-FRET assay for ERBB kinases; format: biochemical; settings: geometric mean if measured more than once
Method in brief: as §1

EGFR WT = EGFR WT (Homo sapiens (Human), UniProt P00533); test: TR-FRET assay for ERBB kinases; format: biochemical; settings: geometric mean if measured more than once
Method in brief: as §1

[1] = target: EGFR L858R/T790M double mutant (H1975) (Homo sapiens (Human), UniProt P00533, L858R/T790M); test: EGFR protein degradation assay (Western blot); format: cell-based; settings: 72 hours, 300 nM to 10 nM
Method in brief: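 Cells carrying the relevant EGFR form were plated at 300,000 cells per well in 6-well plates and left to attach overnight. After washing in ice-cold PBS, cells were lysed in 400 μl lysis buffer with protease inhibitors, scraped, and clarified at 10 000 rpm for 10 minutes. EGFR levels were then assessed by Western blot with tubulin as loading control.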

HER3 = HER3 (Homo sapiens (Human), UniProt P21860); test: TR-FRET assay for ERBB kinases; format: biochemical; settings: geometric mean if measured more than once
EGFR Exon20NPG = EGFR Exon20NPG (Homo sapiens (Human), UniProt P00533, INS770NPG); test: TR-FRET assay for ERBB kinases; format: biochemical; settings: geometric mean if measured more than once
Method in brief: (§2)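 Compounds pre-incubated 10 min with kinase in HEPES pH 7.5 buffer (MgCl2, DTT, Pluronic), then reaction started with substrate mix (3 mM ATP, 30 µM fluorescein-poly-GluTyr, stock levels) for 10 min at room temperature. EDTA-quenched, detected by Tb-pY20 antibody TR-FRET (520/490 nm emission).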

[2] = target: EGFR L858R/T790M/C797S triple mutant (H520*) (Homo sapiens (Human), UniProt P00533, C797S/L858R/T790M); test: EGFR protein degradation assay (Western blot); format: cell-based; settings: 72 hours, 300 nM to 10 nM
Method in brief: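 EGFR loss in the triple-mutant line measured by immunoblot: clarified lysates normalised by BCA, run on 4-12% Bis-Tris gels, blotted to PVDF, probed with HRP anti-rabbit secondary. Before lysis, cells were dosed from 1, 0.3, 0.1, 0.03 and 0.01 mM DMSO stocks (not final concentrations) after overnight culture at 37° C.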

EGFR Δ19/746/750 = EGFR Δ19/746/750 (Homo sapiens (Human), UniProt P00533, DEL746-750); test: TR-FRET assay for ERBB kinases; format: biochemical; settings: geometric mean if measured more than once
Method in brief: as §2

EGFR Δ19/746/750 T790M = EGFR Δ19/746/750 T790M (Homo sapiens (Human), UniProt P00533, DEL746-750/T790M); test: TR-FRET assay for ERBB kinases; format: biochemical; settings: geometric mean if measured more than once
Method in brief: as §2

Sequence of EGFR L858R/T790M/C797S (P00533 25-1210 T790M/C797S/L858R): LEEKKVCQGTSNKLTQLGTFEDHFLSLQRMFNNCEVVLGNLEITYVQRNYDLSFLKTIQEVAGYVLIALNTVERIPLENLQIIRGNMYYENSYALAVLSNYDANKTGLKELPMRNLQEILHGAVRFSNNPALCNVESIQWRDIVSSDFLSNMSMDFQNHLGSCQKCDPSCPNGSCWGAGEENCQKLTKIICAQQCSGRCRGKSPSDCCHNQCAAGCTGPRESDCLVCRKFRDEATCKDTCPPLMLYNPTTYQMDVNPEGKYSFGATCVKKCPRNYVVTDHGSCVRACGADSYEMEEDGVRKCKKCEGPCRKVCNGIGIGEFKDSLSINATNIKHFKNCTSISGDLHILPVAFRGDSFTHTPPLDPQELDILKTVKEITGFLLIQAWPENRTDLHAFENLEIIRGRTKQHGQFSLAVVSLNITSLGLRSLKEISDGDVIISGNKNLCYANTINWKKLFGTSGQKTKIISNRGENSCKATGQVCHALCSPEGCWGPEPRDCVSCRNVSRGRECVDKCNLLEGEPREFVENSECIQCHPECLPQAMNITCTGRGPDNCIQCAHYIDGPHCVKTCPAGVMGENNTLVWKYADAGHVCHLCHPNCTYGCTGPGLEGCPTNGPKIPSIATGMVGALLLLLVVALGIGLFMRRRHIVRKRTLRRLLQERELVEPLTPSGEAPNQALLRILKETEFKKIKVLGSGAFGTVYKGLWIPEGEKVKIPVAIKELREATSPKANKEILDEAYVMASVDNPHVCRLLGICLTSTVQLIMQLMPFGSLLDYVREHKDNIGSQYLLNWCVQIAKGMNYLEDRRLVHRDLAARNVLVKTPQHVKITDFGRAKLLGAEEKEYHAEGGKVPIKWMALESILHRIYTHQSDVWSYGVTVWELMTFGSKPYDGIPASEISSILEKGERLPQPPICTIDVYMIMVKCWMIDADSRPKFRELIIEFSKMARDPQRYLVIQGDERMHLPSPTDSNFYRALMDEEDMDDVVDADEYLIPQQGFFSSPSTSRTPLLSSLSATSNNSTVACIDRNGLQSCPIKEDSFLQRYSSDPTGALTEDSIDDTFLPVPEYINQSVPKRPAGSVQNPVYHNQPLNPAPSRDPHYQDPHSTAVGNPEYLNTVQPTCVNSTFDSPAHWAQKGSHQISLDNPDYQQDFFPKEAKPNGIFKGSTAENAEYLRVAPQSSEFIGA
Sequence of EGFR L858R/T790M (P00533 25-1210 T790M/L858R): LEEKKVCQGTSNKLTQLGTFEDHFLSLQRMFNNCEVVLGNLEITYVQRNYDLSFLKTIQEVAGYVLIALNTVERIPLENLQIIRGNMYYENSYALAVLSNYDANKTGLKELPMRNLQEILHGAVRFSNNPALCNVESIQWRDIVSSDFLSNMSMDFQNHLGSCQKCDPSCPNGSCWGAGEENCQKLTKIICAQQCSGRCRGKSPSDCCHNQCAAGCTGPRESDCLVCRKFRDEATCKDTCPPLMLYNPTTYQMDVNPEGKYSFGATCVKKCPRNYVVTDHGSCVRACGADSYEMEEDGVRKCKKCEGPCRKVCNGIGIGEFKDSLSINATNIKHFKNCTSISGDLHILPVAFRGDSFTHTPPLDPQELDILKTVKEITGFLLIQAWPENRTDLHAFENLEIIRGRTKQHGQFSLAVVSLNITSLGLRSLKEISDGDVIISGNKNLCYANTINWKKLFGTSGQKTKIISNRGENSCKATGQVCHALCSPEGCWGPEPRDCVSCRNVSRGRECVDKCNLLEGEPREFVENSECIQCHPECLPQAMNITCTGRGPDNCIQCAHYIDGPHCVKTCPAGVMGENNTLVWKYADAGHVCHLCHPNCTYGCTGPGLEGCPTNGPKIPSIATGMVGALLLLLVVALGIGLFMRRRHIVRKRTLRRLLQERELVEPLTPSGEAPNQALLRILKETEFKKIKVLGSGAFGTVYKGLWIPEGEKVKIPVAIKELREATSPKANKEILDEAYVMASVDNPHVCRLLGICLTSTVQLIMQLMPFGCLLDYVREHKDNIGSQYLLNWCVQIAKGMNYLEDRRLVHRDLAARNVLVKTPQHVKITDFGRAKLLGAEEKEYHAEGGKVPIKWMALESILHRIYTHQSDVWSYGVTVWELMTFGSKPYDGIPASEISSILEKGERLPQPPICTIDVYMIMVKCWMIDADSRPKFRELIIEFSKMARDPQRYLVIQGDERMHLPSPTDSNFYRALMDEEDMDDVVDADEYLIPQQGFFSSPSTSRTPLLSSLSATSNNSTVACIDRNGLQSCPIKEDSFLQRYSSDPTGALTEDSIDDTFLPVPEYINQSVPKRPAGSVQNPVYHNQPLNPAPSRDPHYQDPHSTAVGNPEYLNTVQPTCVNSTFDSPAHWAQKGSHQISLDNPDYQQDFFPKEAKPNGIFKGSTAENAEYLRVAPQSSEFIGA
Sequence of EGFR L858R/T790M double mutant (H1975) (P00533 25-1210 T790M/L858R): as above
Sequence of EGFR Exon20NPG (P00533 other isoform, or with tags, fused parts or gaps del 1-694/ins NPG behind 770 limits assumed): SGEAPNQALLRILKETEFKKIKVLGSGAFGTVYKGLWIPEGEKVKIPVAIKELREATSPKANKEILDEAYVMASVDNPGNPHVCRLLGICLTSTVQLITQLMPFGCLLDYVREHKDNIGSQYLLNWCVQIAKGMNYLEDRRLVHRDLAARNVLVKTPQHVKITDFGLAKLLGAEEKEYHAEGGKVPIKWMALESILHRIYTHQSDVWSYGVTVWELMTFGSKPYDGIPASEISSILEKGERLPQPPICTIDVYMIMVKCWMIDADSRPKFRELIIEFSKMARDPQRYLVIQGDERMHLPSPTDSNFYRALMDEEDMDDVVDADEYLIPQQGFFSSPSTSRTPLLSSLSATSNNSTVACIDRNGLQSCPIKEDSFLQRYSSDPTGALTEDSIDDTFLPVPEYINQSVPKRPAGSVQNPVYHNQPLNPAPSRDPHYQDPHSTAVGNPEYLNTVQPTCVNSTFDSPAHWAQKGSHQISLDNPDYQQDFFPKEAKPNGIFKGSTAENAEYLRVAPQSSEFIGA
Sequence of EGFR Δ19/746/750 T790M (P00533 other isoform, or with tags, fused parts or gaps T790M/del 1-694/del 746-750 limits assumed): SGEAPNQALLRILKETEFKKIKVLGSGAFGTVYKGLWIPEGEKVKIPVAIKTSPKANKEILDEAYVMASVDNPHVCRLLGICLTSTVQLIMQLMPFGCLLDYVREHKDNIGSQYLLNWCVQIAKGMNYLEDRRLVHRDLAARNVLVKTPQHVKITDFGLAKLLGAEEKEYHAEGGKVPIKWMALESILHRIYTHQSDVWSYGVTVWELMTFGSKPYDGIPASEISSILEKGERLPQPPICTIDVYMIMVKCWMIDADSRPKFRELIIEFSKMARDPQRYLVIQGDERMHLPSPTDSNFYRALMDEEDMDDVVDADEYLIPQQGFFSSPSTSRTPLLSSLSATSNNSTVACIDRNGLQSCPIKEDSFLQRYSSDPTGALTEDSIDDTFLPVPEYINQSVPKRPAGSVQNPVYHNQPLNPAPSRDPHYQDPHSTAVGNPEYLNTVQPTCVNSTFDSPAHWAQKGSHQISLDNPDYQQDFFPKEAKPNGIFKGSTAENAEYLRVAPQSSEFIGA
Sequence of EGFR Δ19/746/750 (P00533 other isoform, or with tags, fused parts or gaps del 1-694/del 746-750 limits assumed): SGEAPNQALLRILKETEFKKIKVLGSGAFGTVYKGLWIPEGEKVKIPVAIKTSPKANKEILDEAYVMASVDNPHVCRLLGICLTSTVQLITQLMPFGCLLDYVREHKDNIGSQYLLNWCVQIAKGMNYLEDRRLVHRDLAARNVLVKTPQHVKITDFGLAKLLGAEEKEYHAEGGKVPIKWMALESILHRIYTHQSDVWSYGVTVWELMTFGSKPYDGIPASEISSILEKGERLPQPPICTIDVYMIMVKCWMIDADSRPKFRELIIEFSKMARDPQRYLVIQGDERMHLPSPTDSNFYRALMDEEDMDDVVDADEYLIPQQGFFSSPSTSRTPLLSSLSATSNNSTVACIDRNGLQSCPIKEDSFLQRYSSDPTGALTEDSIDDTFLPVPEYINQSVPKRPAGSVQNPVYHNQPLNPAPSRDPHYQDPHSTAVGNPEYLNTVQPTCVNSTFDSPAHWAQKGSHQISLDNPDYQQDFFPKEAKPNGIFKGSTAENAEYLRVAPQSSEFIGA

With `COC1CCN(c2nccc(Nc3cc4c(cn3)nc(COCCCN3CCN(CCCOc5ccc6c(c5)C(=O)N(C5CCC(=O)NC5=O)C6=O)CC3)n4C(C)C)n2)CC1` (stereo not drawn) [compound 89] the pIC50 (EGFR L858R/T790M) was 5.80, the pIC50 (EGFR L858R/T790M/C797S) was 6.19 and the pIC50 (EGFR WT) was under 4.52. The “EGFR protein remaining, EGFR L858R/T790M double mutant” value [1] was “C (>80% EGFR protein remaining after 72 hours of incubation with the test compound at a concentration of 300 nM)”, the pIC50 (HER3) was under 4.52 and the pIC50 (EGFR Exon20NPG) was under 4.52.

Work on `O=C1CCC(N2C(=O)c3ccc(NCCOCCOCC#Cc4cccc5c4C(=O)N(C(C(=O)Nc4nccs4)c4cc(F)ccc4O)C5)cc3C2=O)C(=O)N1` (stereo not drawn) [compound 83] yielded a pIC50 (EGFR L858R/T790M) of 5.60, a pIC50 (EGFR L858R/T790M/C797S) of 5.92 and a pIC50 (EGFR WT) of 5.52. For the same compound, the “EGFR protein remaining, EGFR L858R/T790M double mutant” value [1] was “C (>80% EGFR protein remaining after 72 hours of incubation with the test compound at a concentration of 300 nM)”, the pIC50 (HER3) was under 4.52 and the pIC50 (EGFR Exon20NPG) was under 4.52.

Compound `O=C1CCC(N2C(=O)c3ccc(NCCOCCOCCOCC#Cc4cccc5c4C(=O)N(C(C(=O)Nc4nccs4)c4cc(F)ccc4O)C5)cc3C2=O)C(=O)N1` (stereo not drawn) [Example 82, 2-(7-(3-(2-(2-(2-((2-(2,6-dioxopiperidin-3-yl)-1,3-dioxoisoindolin-5-yl)amino)ethoxy)ethoxy)ethoxy)prop-1-yn-1-yl)-1-oxoisoindolin-2-yl)-2-(5-fluoro-2-hydroxyphenyl)-N-(thiazol-2-yl)acetamide] has a pIC50 (EGFR L858R/T790M) of 6.11, a pIC50 (EGFR L858R/T790M/C797S) of 6.35 and a pIC50 (EGFR WT) of 5.42. For the same compound, the “EGFR protein remaining, EGFR L858R/T790M double mutant” value [1] was “C (>80% EGFR protein remaining after 72 hours of incubation with the test compound at a concentration of 300 nM)”, the pIC50 (HER3) was under 4.52 and the pIC50 (EGFR Exon20NPG) was under 4.52.

Work on `COC1CCN(c2nccc(Nc3cc4c(cn3)nc(COCCOCCOCCOCCOCC(=O)N[C@H](C(=O)N3C[C@H](O)C[C@H]3C(=O)N[C@@H](C)c3ccc(-c5scnc5C)cc3)C(C)(C)C)n4C(C)C)n2)CC1` [Example 81, (2S,4R)-1-((S)-18-(tert-butyl)-1-(1-isopropyl-6-((2-(4-methoxypiperidin-1-yl)pyrimidin-4-yl)amino)-1H-imidazo[4,5-c]pyridin-2-yl)-16-oxo-2,5,8,11,14-pentaoxa-17-azanonadecan-19-oyl)-4-hydroxy-N—((S)-1-(4-(4-methylthiazol-5-yl)phenyl)ethyl)pyrrolidine-2-carboxamide] yielded a pIC50 (EGFR L858R/T790M) of 5.07, a pIC50 (EGFR L858R/T790M/C797S) of under 4.52 and a pIC50 (EGFR WT) of 5.62. For the same compound, the “EGFR protein remaining, EGFR L858R/T790M double mutant” value [1] was “C (>80% EGFR protein remaining after 72 hours of incubation with the test compound at a concentration of 300 nM)”, the pIC50 (HER3) was under 4.52 and the pIC50 (EGFR Exon20NPG) was 5.15.

`Cc1ncsc1-c1ccc([C@H](C)NC(=O)[C@@H]2C[C@@H](O)CN2C(=O)[C@@H](NC(=O)COCCCOc2ccc(N3CCN(CCOCc4nc5cnc(Nc6ccnc(-c7cnn(S(=O)(=O)C8CC8)c7)n6)cc5n4C(C)C)CC3)cc2)C(C)(C)C)cc1` [compound 306] was tested, and the pIC50 (EGFR L858R/T790M) was 7.28, the pIC50 (EGFR L858R/T790M/C797S) was 7.80 and the pIC50 (EGFR WT) was 4.89. The “EGFR protein remaining, EGFR L858R/T790M/C797S triple mutant” value [2] was “A (≤50% EGFR protein remaining after 72 hours of incubation with the test compound at a concentration between 300 nM and 10 nM)”, the pIC50 (EGFR Δ19/746/750) was 6.42 and the pIC50 (EGFR Δ19/746/750 T790M) was 7.68.

Compound `CC(C)n1nc(N2CC(CN[C@H]3C[C@H](Oc4ccc5c(c4)C(=O)N(C4CCC(=O)NC4=O)C5=O)C3)C2)c2cnc(Nc3ccnc(-c4cnn(S(=O)(=O)C5CC5)c4)n3)cc21` (stereo partly drawn) [compound 319] has a pIC50 (EGFR L858R/T790M) of 8.64, a pIC50 (EGFR L858R/T790M/C797S) of 9.10 and a pIC50 (EGFR WT) of 8.38. The “EGFR protein remaining, EGFR L858R/T790M/C797S triple mutant” value [2] was “A (≤50% EGFR protein remaining after 72 hours of incubation with the test compound at a concentration between 300 nM and 10 nM)”, the pIC50 (EGFR Δ19/746/750) was 8.89 and the pIC50 (EGFR Δ19/746/750 T790M) was 9.52.
